The record followed here is a melting point compilation (Tetko et al.; mined from patent text by program, amines drawn as free bases though some values may be those of a salt).

In general, melting point refers to the temperature, or range, at which the solid turns liquid.

`CCC(SC(C)=O)C(=O)NC(C)=O` (stereo not given) had a melting point of 59 to 60 °C.
For the molecule `CCCCCCCCCCCCCCN(C)c1ccc([N+](=O)[O-])cc1C(=O)O`, the melting point was 100 to 101 °C.
For `CSc1sc(-c2ncn(C)n2)c2c1C(=O)CC(C)(C)C2` the value was 146 to 148 °C; for `CCCCOc1ccc(CC(=O)N[C@@H](C(=O)O)[C@@H](C)O)cc1`, 90 to 94 °C.
For `O=C(O)c1cc2cc(Cl)ccc2nc1N[C@@H](Cc1ccc(O)cc1)C(=O)O` the value was 176 to 188 °C; for `COc1cc2c(Nc3ccc(Sc4nccn4C)c(Cl)c3)c(C#N)cnc2cc1N1CCN(CCn2ccnc2)CC1`, 251 to 253 °C.
As for `COC(=O)C1CSC(=O)C1` (stereo not given), the figure is 33 to 35 °C; as for `CCOC(=O)C(Cc1ccc2ccc3cccc4ccc1c2c34)(NC(C)=O)C(=O)OCC`, 135 to 140 °C.
The molecule `O=c1[nH]c(=S)[nH]cc1CCCc1ccccc1` registered a melting point of 180 to 182 °C.
For `COc1ccc(N2C[C@@](C)(COC(=O)c3ccc([N+](=O)[O-])cc3)OC2=O)cc1` the value was 156 to 158 °C; for `CSc1nc(Cl)ncc1C`, 73 to 76 °C.
For `COC(=O)NC1CCc2sccc2C1` (stereo not given) the value was 108 to 109 °C; for `CCCCCCCOc1ccc(-c2ncc(C#N)c(Cl)n2)cc1`, 133 to 135 °C; for `CCN(CC)c1cccc2nc3n(c12)CC(N)CCN3c1ccc(Cl)cc1Cl` (stereo not given), 149 to 151 °C.
As for `CC(=O)N1CCC(C(=O)N2CC[C@@H](N(C)C(=O)c3ccc(C4CC4)cc3)[C@H](c3ccc(Cl)c(Cl)c3)C2)CC1`, the figure is 129 to 133 °C; as for `Cc1c(C)c2c(c(C)c1Br)C(c1ccccc1)CO2` (stereo not given), 107 to 108 °C; as for `C=Cc1c(N=C2NCCN2)cccc1OC`, 126 °C.
Molecule `COc1cc(OC)c2c(=O)[nH]c(-c3ccc(N4CCC(O)CC4)cc3)nc2n1` gave a melting point of 284 to 286 °C.
With `Clc1cccc(-c2nc(-c3ccccn3)no2)c1`, the melting point lay in the range of 136 to 140 °C.
As for `N#Cc1cnc2c(sc3c([N+](=O)[O-])cccc32)c1Cl`, the figure is 258 to 260 °C.
Molecule `O=C(NCc1ccc(Cl)cc1)c1cnc2c(F)cc(-c3cccs3)cc2c1O` gave a melting point of 298 to 301 °C.
As for `COc1ccc2c(c1O)C(=O)O[C@@H]2[C@H]1c2c(cc3c(c2OC)OCO3)CCN1C`, the figure is 142 to 143 °C; as for `CCN(CC(C)Nc1c(C)cccc1C)C(C)=O` (stereo not given), 58 to 60 °C; as for `O=C(O)c1cc(Oc2ccc(C(F)(F)F)cc2Cl)ccc1Cl`, 103 to 104 °C.
For `CCN(CC)C(=O)CCCN(C(=O)Nc1cc(OC)cc(C(C)(C)C)c1O)c1ccccc1` the value was 131 to 133 °C; for `CC1(C2CCCC2)Cc2cc(OCC(=O)O)c(Cl)c(Cl)c2C1O` (stereo not given), 129 to 131 °C.
For `Clc1cccc(C(c2ccccc2)(c2ccccc2)n2ccnc2)c1` the value was 101 °C.
The molecule `Cn1cc(-c2cccc(Cl)c2)c(=O)c(-c2ccccc2Cl)c1` showed a melting point of 160 to 161 °C.
As for `CCOC(=O)c1c(Cn2cnnc2)nc2sc(C)c(C)c2c1-c1ccc2c(c1)OCO2`, the figure is 96 to 98 °C.
As for `CCCCCCOC(=O)NC(=N)c1ccc(NCc2nc3cc(C(=O)N(CCC(=O)OCC)c4ccccn4)ccc3n2C)cc1`, the figure is 126 to 128 °C; as for `CC1=CC(=O)CC(c2cccc(Cl)c2)N1C` (stereo not given), 82 °C; as for `FC(F)(F)C(F)(F)C1(CNC2=NCCO2)CCCCC1`, 115 to 118 °C.
For `CCOC(=O)/C=C/c1ccc(OCCOC2CC2)cc1Oc1ncc(C(F)(F)F)cc1Cl` the value was 75.4 to 75.9 °C.
`N#CC1=C(c2ccco2)Nc2n[nH]cc2C1c1cccc2nonc12` (stereo not given) yielded a melting point of 237 °C.
As for `CC(C)(C)c1ccc(N(c2ccc(-c3ccc(Nc4ccccc4)cc3)cc2)c2ccc(C(C)(C)C)cc2)cc1`, the figure is 161 to 162 °C; as for `CCCC[C@H](NC(=O)[C@@H](NC(=O)OCc1ccccc1)[C@@H](C)CC)C(=O)CSCc1ccco1`, 101 to 103 °C.
For `CC(=O)OCC1=C(C(=O)OC(c2ccccc2)c2ccccc2)N2C(=O)C(NC(=O)Cc3csc(-c4c(O)cccc4O)n3)C2SC1` (stereo not given) the value was 144 to 146 °C.
For `CN1CCN(c2cc(NC(=O)OC(C)(C)C)c(N)cc2C#Cc2ccccc2)CC1` the value was 81 to 85 °C.
Regarding `CCN(CC)C(=O)n1cnc(SCC2CC2)n1`, the melting point was 51 to 52 °C.
For `Cc1ccc(-n2cnc3nncc-3c2N)cc1` the value was more than 300 °C; for `COc1ccc(COc2cccc(N)c2N)cc1`, 127 °C; for `O=c1[nH]c2ccccc2c(=O)n1CCN1CCC(c2c[nH]c3cc(F)ccc23)CC1`, 301 °C.
`CC1=CC(N)(C(=O)NCCC(C)n2ccnc2)CC=C1` (stereo not given): the melting point fell in the range of 128 to 130 °C.
As for `CCCCCCCCSc1nc(NCC(C)(C)c2cc(C(C)(C)C)c(O)c(C(C)(C)C)c2)nc(NC2CC(C)(C)NC(C)(C)C2)n1`, the figure is 130 °C; as for `COc1ccc(-c2nc(N)ncc2-c2ccc(=O)n(C)n2)cc1`, 259 °C; as for `O=c1[nH]c2nc(C(F)(F)F)cc(C(F)(F)F)c2cc1-c1ccncc1`, 250 to 270 °C.
For `Cc1cccc2cc3c(=O)n(CCc4cn(C(=O)NCCN(C)C)c5ccccc45)cc(C(=O)NCCN(C)C)c3nc12` the value was 182 to 185 °C; for `COc1ccc2c(c1OC)CC(c1ccccc1)C=C2C#N` (stereo not given), 109 to 110 °C.
As for `CC(NC(=O)c1c(Cl)ccnc1Cl)c1ncc(C(F)(F)F)cc1Cl` (single isomer, unassigned; (+)), the figure is 110 to 111 °C; as for `COc1cc2c(CCN)c[nH]c2cc1F`, 114 to 117 °C; as for `CC(=O)Nc1cccc(NC(=O)c2cccc(S(=O)(=O)N3CCCCCC3)c2)c1`, 117 to 120 °C.
`CCC(=O)CN1C(=O)C(NC(=O)Nc2cccc(C)c2)N=C(C)c2cccc(C)c21` (stereo not given) showed a melting point of 125 to 128 °C.
As for `CC(C)(C)Nc1nc(C#N)c(C#N)nc1N`, the figure is more than 250 °C; as for `O=C1NCCN1CCN1CCC(c2noc3cc(F)ccc23)CC1`, 137 to 141 °C.
For `O=[N+]([O-])c1ccc(-c2c(Cl)ncnc2NS(=O)(=O)c2ccc(Cl)cc2)cc1` the value was 282 to 285 °C; for `COc1cc(C(=O)O)cc(OC)c1-c1ccc(C[C@H](NC(=O)c2c(Cl)cccc2Cl)C(=O)O)cc1`, 277 to 278 °C.
As for `Cc1nc2c(O[C@@H]3c4ccccc4C[C@H]3O)cc(Cl)cn2c1C=O` (relative stereo), the figure is 220 to 222 °C.
`NCC(O)CN1CCN(C(c2ccc(F)cc2)c2ccc(F)cc2)CC1` (stereo not given) showed a melting point of 45 to 47 °C.
For `O=C(c1ccccc1)N1CCCSC1=C[N+](=O)[O-]` the value was 90 to 92 °C.
As for `O=C(NCCC1OCCO1)c1ccc[nH]1`, the figure is 133 to 135 °C; as for `CC(C)(C)c1cc(C=Cc2ccccc2NC(=O)NC2CCCCCC2)cc(C(C)(C)C)c1O`, 203 to 206 °C.
For `Clc1ccc2nc(Cl)oc2c1` the value was 40 to 44 °C; for `CCOc1ccc2c(c1)C(=O)Cc1c(Cl)cccc1S2`, 121 to 123 °C; for `O=CN(O)C(CO)CS(=O)(=O)c1ccccc1Sc1ccc(Cl)cc1` (stereo not given), 148 to 150 °C.
Consider `O=S(=O)(Nc1ccc(Oc2ccc3ncccc3c2)cc1)c1cccc(C(F)(F)F)c1`, for which the melting point was in the range of 142 to 143 °C.
As for `O=C(N[C@@H]1CCc2ccccc21)C(F)(F)F`, the figure is 152 to 153 °C.
For `N#CC1(N)CCSCC1` the value was 51 to 52 °C.
As for `Oc1nc2ccc(F)cc2nc1O`, the figure is more than 300 °C; as for `OCc1nc2n(n1)-c1ccccc1N(c1cccc(C(F)(F)F)c1)C2`, 168 to 171 °C.
For the molecule `CCC(O)(CCC(N)=O)c1ccc(Br)cc1` (stereo not given), the melting point was 122 to 123 °C.
Molecule `Cc1ccc(C(NC(N)=S)c2ccccc2)cc1` (stereo not given) gave a melting point of 167 to 168 °C.
Consider `COC(=O)N1CCC(=NO)c2cc(Cl)ccc21`, for which the melting point is 162 to 163 °C.
For `COc1ccc(Oc2c(Br)cc(C#N)cc2Br)cc1Cc1ccc(=O)[nH]n1` the value was 214 to 216 °C.
`CN1C(=O)N(CCN=C=O)C(C)(C)C1=O` displayed a melting point of 62 °C.
As for `CCP(=O)(OC)C(O)C(CC1CCCCC1)NC(=O)[C@H](CC(C)C)NC(=O)CCc1ccccc1` (stereo not given in full), the figure is 170 to 175 °C; as for `Cc1nc(-n2ccc3cc(O)ccc3c2=O)sc1C(=O)NCc1ccccc1`, 225 to 228 °C.
As for `CCOCc1nc2c(N)nc3ccccc3c2n1CC1(O)CCN(C(=O)OCC)CC1`, the figure is 165 to 167 °C.
`Cc1nc(C)c(-c2ccnc(Nc3cccc([N+](=O)[O-])c3)n2)s1` yielded a melting point of 176 to 178 °C.
As for `CCCc1cc(-c2cc(OC)c3c(C)c(C)c(=O)oc3c2)on1`, the figure is 94 °C.
For `CSc1nc(SC)nc(-n2c(C)nc3ccccc32)n1` the value was 176 to 179 °C.
For `Oc1ccc2c(c1)CC(CCc1ccccc1)O2` (stereo not given) the value was 56 to 58 °C; for `COc1cc(C(O)c2ccnc3ccccc23)ccc1OCc1ccccc1` (stereo not given), 117 to 118 °C; for `COc1c(Cc2c[nH]cn2)cccc1C(N)=O`, 160 °C.
`O=C(O)c1ccc(-c2cc3cccnc3c(-c3cccc4nonc34)n2)cc1` registered a melting point of more than 300 °C.
As for `O=P(O)(O)C(F)(F)P(=O)(O)O`, the figure is 87 to 90 °C; as for `CCCCCC(O)C#CCCCCCCC#Cc1ccc(O)c(O)c1` (stereo not given), 46 to 48 °C.
For `CCOC(=O)Cc1ccc(CCNC(=O)c2ccc(Cl)cc2)cc1` the value was 118 to 119 °C.
As for `COC(=O)C1=Cc2cc(OCc3ccc(F)cc3)ccc2S(=O)(=O)CC1`, the figure is 141 to 143 °C; as for `CC[C@H]1CN(c2c(F)cc3c(=O)c(C(=O)O)cn4c3c2OC[C@@H]4C)C[C@H]1NC`, 211 to 213 °C; as for `O=C1C2CCCC2=Nc2ccccc2N1Cc1cccc2ccccc12` (stereo not given), 145 to 147 °C.
